Test results published in PubChem BioAssay (NCI).
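Briefly, cells in 96-well plates were exposed to five compound concentrations for 48 h, and endpoints were estimated by linear interpolation. GI50 marks 50% less growth. TGI: concentration producing complete growth inhibition.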

Assays:
Test in all cases: NCI tumour cell line growth inhibition, 48 h
[1] = system: CAKI-1 renal
[2] = system: SK-MEL-2 melanoma
[3] = system: HOP-92 NSCLC
[4] = system: A549 NSCLC
[5] = system: HCT-15 colon
[6] = system: RXF 393 renal
[7] = system: U251 CNS
[8] = system: SF-295 CNS
[9] = system: MDA-MB-435
[10] = system: OVCAR-3 ovarian
[11] = system: NCI-H522 lung
[12] = system: T-47D breast
[13] = system: TK-10 renal
[14] = system: SF-539 CNS
[15] = system: HCC-2998 colon
[16] = system: UO-31 renal
[17] = system: M14 melanoma
[18] = system: EKVX NSCLC
[19] = system: NCI-H460 lung
[20] = system: BT-549 breast
[21] = system: SNB-75 CNS
[22] = system: SK-OV-3 ovarian
[23] = system: NCI-H226 lung
[24] = system: RPMI-8226 leukemia
[25] = system: MALME-3M melanoma
[26] = system: ACHN renal
[27] = system: SK-MEL-5 melanoma
[28] = system: IGROV1 ovarian
[29] = system: A498 renal
[30] = system: KM12 colon
[31] = system: OVCAR-4 ovarian
[32] = system: K-562 leukemia
[33] = system: HL-60(TB) leukemia
[34] = system: SW-620 colon
[35] = system: OVCAR-8 ovarian
[36] = system: NCI/ADR-RES ovarian
[37] = system: PC-3 prostate
[38] = system: UACC-62 melanoma
[39] = system: UACC-257 melanoma
[40] = system: COLO 205 colon
[41] = system: SN12C renal
[42] = system: HT29 colon
[43] = system: NCI-H23 lung
[44] = system: HCT-116 colon
[45] = system: SK-MEL-28 melanoma
[46] = system: SF-268 CNS
[47] = system: SR leukemia
[48] = system: HS 578T breast
[49] = system: MDA-MB-231 breast
[50] = system: LOX IMVI melanoma
[51] = system: 786-0 renal
[52] = system: MOLT-4 leukemia
[53] = system: DU-145 prostate
[54] = system: SNB-19 CNS
[55] = system: CCRF-CEM leukemia
[56] = system: HOP-62 NSCLC
[57] = system: MCF7 breast
[58] = system: OVCAR-5 ovarian

## C=C(C)C(=O)O[C@H]1C[C@@]2(C)OC(=CC2=O)/C(C)=C\[C@H]2OC(=O)C(=C)[C@H]12
[1]
  GI50: 928 nM
  TGI: 3120 nM
[2]
  GI50: 1400 nM
  TGI: 6020 nM
[3]
  GI50: 1040 nM
  TGI: 2990 nM
[4]
  GI50: 8470 nM
  TGI: > 33200 nM
[5]
  GI50: 795 nM
  TGI: 3290 nM
[6]
  GI50: 601 nM
  TGI: 1190 nM
[7]
  GI50: 1750 nM
  TGI: 7160 nM
[8]
  GI50: 5820 nM
  TGI: 18500 nM
[9]
  GI50: 717 nM
  TGI: 1780 nM
[10]
  GI50: 863 nM
  TGI: 2920 nM
[11]
  GI50: 461 nM
  TGI: 1040 nM
[12]
  GI50: 661 nM
  TGI: 3800 nM
[13]
  GI50: 859 nM
  TGI: 2060 nM
[14]
  GI50: 1070 nM
  TGI: 4780 nM
[15]
  GI50: 3300 nM
  TGI: 8150 nM
[16]
  GI50: 560 nM
  TGI: 1240 nM
[17]
  GI50: 790 nM
  TGI: 2370 nM
[18]
  GI50: 1310 nM
  TGI: 12200 nM
[19]
  GI50: 5010 nM
  TGI: > 33200 nM
[20]
  GI50: 927 nM
  TGI: 3030 nM
[21]
  GI50: 1150 nM
  TGI: 16400 nM
[22]
  GI50: 10700 nM
  TGI: > 33200 nM
[23]
  GI50: 762 nM
  TGI: 1990 nM
[24]
  GI50: 1060 nM
  TGI: 3400 nM
[25]
  GI50: 666 nM
  TGI: 1500 nM
[26]
  GI50: 625 nM
  TGI: 1600 nM
[27]
  GI50: 3670 nM
  TGI: 13600 nM
[28]
  GI50: 1950 nM
  TGI: 6230 nM
[29]
  GI50: 7420 nM
  TGI: 16500 nM
[30]
  GI50: 3840 nM
  TGI: 8870 nM
[31]
  GI50: 1380 nM
  TGI: 6360 nM
[32]
  GI50: 1150 nM
  TGI: > 33200 nM
[33]
  GI50: 913 nM
  TGI: 2450 nM
[34]
  GI50: 705 nM
  TGI: 1720 nM
[35]
  GI50: 1230 nM
  TGI: > 33200 nM
[36]
  GI50: 1110 nM
  TGI: > 33200 nM
[37]
  GI50: 2010 nM
  TGI: 7630 nM
[38]
  GI50: 675 nM
  TGI: 1800 nM
[39]
  GI50: 872 nM
  TGI: 2280 nM
[40]
  GI50: 554 nM
  TGI: 1260 nM
[41]
  GI50: 1300 nM
  TGI: 11000 nM
[42]
  GI50: 957 nM
  TGI: 3290 nM
[43]
  GI50: 1540 nM
  TGI: 8320 nM
[44]
  GI50: 530 nM
  TGI: 1210 nM
[45]
  GI50: 788 nM
  TGI: 1960 nM
[46]
  GI50: 1990 nM
  TGI: > 16700 nM
[47]
  GI50: 734 nM
  TGI: 6300 nM
[48]
  GI50: 8210 nM
  TGI: > 33200 nM
[49]
  GI50: 1180 nM
  TGI: 4640 nM
[50]
  GI50: 601 nM
  TGI: 1340 nM
[51]
  GI50: 660 nM
  TGI: 1500 nM
[52]
  GI50: 1010 nM
  TGI: 3520 nM
[53]
  GI50: 968 nM
  TGI: 4180 nM
[54]
  GI50: 11100 nM
  TGI: > 33200 nM
[55]
  GI50: 930 nM
  TGI: 4250 nM
[56]
  GI50: 6500 nM
  TGI: 24600 nM
[57]
  GI50: 1000 nM
  TGI: 5330 nM
[58]
  GI50: 1030 nM
  TGI: 3210 nM
